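Cultured in 96-well plates, cells were exposed to test compound for 48 hours across five concentrations. GI50 is the concentration that inhibits growth by half.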 Calls of active or inactive are those of the source. Rule as the data show it: active = GI50 up to about 1.1 µM and inactive = higher.

The text below walks through data of ChEMBL document CHEMBL1201862, “PubChem BioAssay data set” (2004).

Some test systems named below: A498; LOX IMVI; HCT-15; Malme-3M; A549; SNB-75; K562; SW-620; RPMI-8226; NCI-H226; IGROV-1; NCI-H522; SNB-19; UACC-62; LXFL 529; SK-OV-3; ACHN.
Holding throughout (assay): NCI-60 cell line screen, 48 h

For the molecule `C=C(Br)N(CC)CC`, the GI50 was > 100 µM (inactive) in the assay with A498; > 100 µM (inactive) with LOX IMVI; greater than 100 µM in the assay on HCT-15; > 100 µM (inactive) in the assay with Malme-3M; > 100 µM (inactive) with A549; > 100 µM (inactive) in the assay on SNB-75. The GI50 with K562, in the assay on SW-620, in the assay with RPMI-8226, in the assay on NCI-H226, in the assay on IGROV-1 and in the assay on NCI-H522 was > 100 µM (inactive) in each case. Besides, the GI50 in the assay with SNB-19, with UACC-62, in the assay with LXFL 529, with SK-OV-3 and in the assay on ACHN was > 100 µM (inactive) each time.
With `CC(=O)N1C/C(=C\c2ccccc2)C(=O)/C(=C/c2ccccc2)C1`, the GI50 with A498 is 16.8 µM (inactive); in the assay on LOX IMVI, 3.43 µM (inactive); with HCT-15, 8.38 µM; in the assay with Malme-3M, 18.3 µM (inactive); in the assay with A549, 23.1 µM (inactive); with SNB-75 it was 20 µM (inactive). In addition, the GI50 was 2.89 µM (inactive) in the assay on K562; 2.67 µM (inactive) in the assay on SW-620; 0.415 µM (active) in the assay on RPMI-8226; 17.4 µM (inactive) in the assay with NCI-H226; 17.6 µM (inactive) with IGROV-1; 12.3 µM (inactive) with NCI-H522. Also, the GI50 in the assay on SNB-19 was 16.8 µM (inactive); in the assay with UACC-62 it was 14.4 µM (inactive); in the assay with LXFL 529 it was 9.4 µM (inactive); in the assay on SK-OV-3, 22.5 µM (inactive); with ACHN, 16.9 µM (inactive).
`O=C(O/N=C1/CCC/C1=C\c1ccccc1)c1ccccc1`: the GI50 with A498 is > 100 µM (inactive); with LOX IMVI, 61.8 µM (inactive); in the assay with HCT-15, 59.6 µM; in the assay with Malme-3M, > 100 µM (inactive); in the assay on A549, > 100 µM (inactive); in the assay with SNB-75, 47.5 µM (inactive). Further, the GI50 in the assay with K562 was 38.7 µM (inactive); with SW-620 it was > 100 µM (inactive); in the assay with RPMI-8226, 50.5 µM (inactive); in the assay with NCI-H226 it was > 100 µM (inactive); in the assay on IGROV-1 it was > 100 µM (inactive); in the assay with NCI-H522 it was 53 µM (inactive). Besides, the GI50 is > 100 µM (inactive) with UACC-62, 28.9 µM (inactive) in the assay on LXFL 529, > 100 µM (inactive) in the assay with SK-OV-3 and > 100 µM (inactive) in the assay on ACHN.
As to `c1ccc(NC[Si]23OCCN(CCO2)CCO3)cc1`, the GI50 with A498, in the assay on Malme-3M, with A549, in the assay on SNB-75, with K562 and with SW-620 was > 100 µM (inactive) each time. Besides, the GI50 in the assay with RPMI-8226, in the assay with NCI-H226, in the assay with IGROV-1, with NCI-H522, in the assay with SNB-19 and in the assay with UACC-62 was > 100 µM (inactive) in each case. In addition, the GI50 in the assay on LXFL 529, in the assay with SK-OV-3 and with ACHN was > 100 µM (inactive) in each case.
For `CC/C=C\C/C=C\C/C=C\CCCCCCCC(=O)OCC(O)CO` (stereo not given), the GI50 was > 100 µM (inactive) with A498; 39.9 µM (inactive) in the assay on LOX IMVI; greater than 63.4 µM in the assay with HCT-15; > 100 µM (inactive) in the assay on Malme-3M; > 84.9 µM (inactive) in the assay on A549; > 100 µM (inactive) with SNB-75. Further, the GI50 was 2.46 µM (inactive) with K562; 58.2 µM (inactive) in the assay on SW-620; 43.4 µM (inactive) with RPMI-8226; > 100 µM (inactive) with NCI-H226; > 92.3 µM (inactive) in the assay on IGROV-1; 22 µM (inactive) in the assay on NCI-H522. Besides, the GI50 was > 100 µM (inactive) in the assay on SNB-19; > 100 µM (inactive) in the assay with UACC-62; > 56.9 µM (inactive) in the assay on LXFL 529; > 100 µM (inactive) in the assay on SK-OV-3; > 58.5 µM (inactive) in the assay with ACHN.
Turning to `CCOc1ccccc1NC(=O)C(=O)CC(=O)C1=C(C)Nc2ccccc2S1`, the GI50 in the assay with A498 is > 100 µM (inactive); in the assay on LOX IMVI, > 100 µM (inactive); in the assay on HCT-15 it was greater than 100 µM; in the assay on Malme-3M, > 100 µM (inactive); with A549, > 100 µM (inactive); in the assay on SNB-75, > 100 µM (inactive). In addition, the GI50 is > 30.5 µM (inactive) with K562; > 100 µM (inactive) in the assay with SW-620; > 100 µM (inactive) in the assay on RPMI-8226; > 100 µM (inactive) with NCI-H226; > 100 µM (inactive) in the assay on IGROV-1; > 100 µM (inactive) in the assay on NCI-H522. In addition, the GI50 in the assay with SNB-19, in the assay with UACC-62, in the assay with LXFL 529, with SK-OV-3 and in the assay on ACHN was > 100 µM (inactive) each time.
For the molecule `CCOC(=O)c1c2ccc(/C=C/c3ccccn3)ccc-2c(C(=O)OCC)c1N`, the GI50 is 24.8 µM (inactive) in the assay with A498; > 100 µM (inactive) in the assay with LOX IMVI; greater than 100 µM in the assay with HCT-15; > 100 µM (inactive) in the assay on Malme-3M; > 100 µM (inactive) in the assay with A549; > 100 µM (inactive) with SNB-75. Also, the GI50 is > 100 µM (inactive) in the assay with K562; > 100 µM (inactive) in the assay with SW-620; > 100 µM (inactive) in the assay with NCI-H226; > 100 µM (inactive) with IGROV-1; 91 µM (inactive) in the assay with NCI-H522; > 100 µM (inactive) in the assay on SNB-19. Further, the GI50 was > 100 µM (inactive) with UACC-62, 72.6 µM (inactive) with LXFL 529, > 100 µM (inactive) with SK-OV-3 and 73.5 µM (inactive) with ACHN.
`CC(=O)Oc1c2c(c(OC(C)=O)c3c1n(C(C)=O)c1ccccc1n3C(C)=O)n(C(C)=O)c1ccccc1n2C(C)=O`: the GI50 is 18.4 µM (inactive) in the assay on A498; 2.56 µM (inactive) in the assay with LOX IMVI; 3.27 µM with HCT-15; 2.38 µM (inactive) in the assay with Malme-3M; 6.22 µM (inactive) with A549; 11.5 µM (inactive) in the assay with SNB-75. Also, the GI50 was 2.86 µM (inactive) in the assay on K562; 1.94 µM (inactive) in the assay with SW-620; 2.48 µM (inactive) in the assay on RPMI-8226; > 10 µM (inactive) in the assay on IGROV-1; 2.3 µM (inactive) in the assay on NCI-H522; 12.4 µM (inactive) in the assay on SNB-19. Also, the GI50 was 8.73 µM (inactive) in the assay on UACC-62, 2.74 µM (inactive) in the assay with LXFL 529, 23.6 µM (inactive) with SK-OV-3 and 9.16 µM (inactive) with ACHN.
Regarding `CC1/C(=N\O)CC(c2ccccc2)N(C)C1c1ccccc1` (stereo not given), the GI50 was > 100 µM (inactive) in the assay on A498; > 100 µM (inactive) with LOX IMVI; greater than 100 µM with HCT-15; 80.9 µM (inactive) in the assay on Malme-3M; > 100 µM (inactive) in the assay with A549; > 100 µM (inactive) in the assay on SNB-75. For the same molecule, the GI50 in the assay with K562, with SW-620, in the assay on NCI-H226, in the assay with IGROV-1, in the assay with NCI-H522 and in the assay on SNB-19 was > 100 µM (inactive) throughout. Moreover, the GI50 in the assay on UACC-62, in the assay on LXFL 529, in the assay with SK-OV-3 and in the assay with ACHN was > 100 µM (inactive) each time.
Take `NC(=S)N/N=C/C(O[C@@H](/C=N/NC(N)=S)CO)n1cnc2c(N)ncnc21` (stereo not given in full): the GI50 in the assay with A498 is > 100 µM (inactive); in the assay with LOX IMVI it was > 100 µM (inactive); with HCT-15 it was greater than 42.3 µM; with Malme-3M it was > 100 µM (inactive); in the assay with A549, > 65.3 µM (inactive); in the assay with SNB-75, > 52.4 µM (inactive). The GI50 with K562 was > 54.7 µM (inactive); with SW-620, > 38 µM (inactive); in the assay with RPMI-8226 it was > 45 µM (inactive); in the assay on NCI-H226 it was > 100 µM (inactive); with IGROV-1, > 56.2 µM (inactive); in the assay on NCI-H522 it was > 47.9 µM (inactive). In addition, the GI50 is > 100 µM (inactive) with SNB-19; > 81.7 µM (inactive) in the assay with UACC-62; > 78.2 µM (inactive) in the assay on LXFL 529; > 100 µM (inactive) with SK-OV-3; > 100 µM (inactive) with ACHN.
With `NC(=O)c1cn(C2OC(CO)C(O)C2O)c(=O)[nH]c1=O` (stereo not given), the GI50 was > 100 µM (inactive) in the assay with A498; > 100 µM (inactive) in the assay with LOX IMVI; greater than 100 µM with HCT-15; > 100 µM (inactive) with A549; > 100 µM (inactive) with SNB-75; > 100 µM (inactive) in the assay with K562. Also, the GI50 with SW-620, in the assay on RPMI-8226, with NCI-H226, in the assay with IGROV-1, in the assay on NCI-H522 and with UACC-62 was > 100 µM (inactive) throughout. Moreover, the GI50 with LXFL 529, with SK-OV-3 and in the assay with ACHN was > 100 µM (inactive) each time.
`CN1CCN=C1c1nnn(-c2ccc([N+](=O)[O-])cc2)c1-c1ccccc1`: the GI50 in the assay with A498 is > 100 µM (inactive); in the assay on LOX IMVI it was 94.6 µM (inactive); in the assay on HCT-15, greater than 100 µM; with Malme-3M it was > 100 µM (inactive); with A549, > 100 µM (inactive); in the assay with SNB-75, > 100 µM (inactive). The GI50 in the assay on K562 is 33.7 µM (inactive); in the assay on SW-620, 26.5 µM (inactive); in the assay on NCI-H226, > 100 µM (inactive); with IGROV-1, > 100 µM (inactive); in the assay on NCI-H522, > 100 µM (inactive); in the assay on SNB-19, > 100 µM (inactive). Moreover, the GI50 in the assay with UACC-62, in the assay on LXFL 529, with SK-OV-3 and with ACHN was > 100 µM (inactive) throughout.
